# The supplement of paper PMC11208160
# Assay: recombinant barcode read abundance after kanamycin selection (control-corrected) (log10(CPM+1)); higher = more efficient recombination; sequences stand for … in AGTGCAGAGAAAATCGGCCAGTTTTCTCTGCCTGCAGTCCGCATGCCGT…ATTTATGCAGCGGACTGCCTTTCTCCCAAAGTGATAAACCGGACAGTATCATGGACCGGTTTTCCCGGTAATCCGTATTTGCAAGGTTGGTTTCACT; site = the 11-nt target
# How it was run: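 Reported as log10(CPM+1), each value stands for recombination efficiency. That efficiency is the averaged, control-corrected counts per million of barcodes found at recombinant junctions. Cells from a pooled E. coli library pairing targets with IS621 bridge RNA target-binding loops were plated twice on chloramphenicol/ampicillin LB agar (control) and twice on chloramphenicol/ampicillin/kanamycin with 0.1 mM IPTG.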
row,Sequence,recombinant barcode read abundance (log10)
1,"GAGCCCAGTTGGGTTCTAACCTGTTGCCTAG [GAGCCCACTAG_LTGcore_GT_RTGcore_CT] (site GAGCCCACTAG) (LTG core: GT, RTG core: CT)",0.0941
2,"GAGCCCATATGGGTTCTAACCTGTTGCCTTA [GAGCCCACTAG_LTGcore_TA_RTGcore_TA] (site GAGCCCACTAG) (LTG core: TA, RTG core: TA)",0.338
3,"GAGCCCATCTGGGTTCTAACCTGTTGCCTAG [GAGCCCACTAG_LTGcore_TC_RTGcore_CT] (site GAGCCCACTAG) (LTG core: TC, RTG core: CT)",0.102
4,"GAGCCCATTTGGGTTCTAACCTGTTGCCTAA [GAGCCCACTAG_LTGcore_TT_RTGcore_TT] (site GAGCCCACTAG) (LTG core: TT, RTG core: TT)",0.178
5,"GAGGCCTCCTGGGTTCTAACCTGTTGCCAGG [GAGGCCTCTTG_LTGcore_CC_RTGcore_CC] (site GAGGCCTCTTG) (LTG core: CC, RTG core: CC)",0.215
6,"GAGGCCTCTTGGGTTCTAACCTGTTGCCAAA [GAGGCCTCTTG_LTGcore_CT_RTGcore_TT] (site GAGGCCTCTTG) (LTG core: CT, RTG core: TT)",0.822
7,"GAGGCCTCTTGGGTTCTAACCTGTTGCCAAT [GAGGCCTCTTG_LTGcore_CT_RTGcore_AT] (site GAGGCCTCTTG) (LTG core: CT, RTG core: AT)",0
8,"GAGGCCTCTTGGGTTCTAACCTGTTGCCACC [GAGGCCTCTTG_LTGcore_CT_RTGcore_GG] (site GAGGCCTCTTG) (LTG core: CT, RTG core: GG)",0.236
9,"GAGGCCTCTTGGGTTCTAACCTGTTGCCACG [GAGGCCTCTTG_LTGcore_CT_RTGcore_CG] (site GAGGCCTCTTG) (LTG core: CT, RTG core: CG)",0.128
10,"GAGGCCTCTTGGGTTCTAACCTGTTGCCATT [GAGGCCTCTTG_LTGcore_CT_RTGcore_AA] (site GAGGCCTCTTG) (LTG core: CT, RTG core: AA)",0.0215
11,"GAGGCCTTTTGGGTTCTAACCTGTTGCCAAG [GAGGCCTCTTG_LTGcore_TT_RTGcore_CT] (site GAGGCCTCTTG) (LTG core: TT, RTG core: CT)",0.0682
12,"GAGTCCAAGTGGGTTCTAACCTGTTGCGTCT [GAGTCCACTAC_LTGcore_AG_RTGcore_AG] (site GAGTCCACTAC) (LTG core: AG, RTG core: AG)",0.0337
13,"GAGTCCACCTGGGTTCTAACCTGTTGCGTAG [GAGTCCACTAC_LTGcore_CC_RTGcore_CT] (site GAGTCCACTAC) (LTG core: CC, RTG core: CT)",0.172
14,"GAGTCCACGTGGGTTCTAACCTGTTGCGTCG [GAGTCCACTAC_LTGcore_CG_RTGcore_CG] (site GAGTCCACTAC) (LTG core: CG, RTG core: CG)",0.405
15,"GAGTCCACTTGGGTTCTAACCTGTTGCGTCT [GAGTCCACTAC_LTGcore_CT_RTGcore_AG] (site GAGTCCACTAC) (LTG core: CT, RTG core: AG)",0
16,"GAGTCCACTTGGGTTCTAACCTGTTGCGTGT [GAGTCCACTAC_LTGcore_CT_RTGcore_AC] (site GAGTCCACTAC) (LTG core: CT, RTG core: AC)",0.0606
17,"GAGTCCACTTGGGTTCTAACCTGTTGCGTTG [GAGTCCACTAC_LTGcore_CT_RTGcore_CA] (site GAGTCCACTAC) (LTG core: CT, RTG core: CA)",0
18,"GAGTCCAGATGGGTTCTAACCTGTTGCGTAG [GAGTCCACTAC_LTGcore_GA_RTGcore_CT] (site GAGTCCACTAC) (LTG core: GA, RTG core: CT)",0.294
19,"GAGTCCAGCTGGGTTCTAACCTGTTGCGTGC [GAGTCCACTAC_LTGcore_GC_RTGcore_GC] (site GAGTCCACTAC) (LTG core: GC, RTG core: GC)",0.174
20,"GAGTCCAGGTGGGTTCTAACCTGTTGCGTCC [GAGTCCACTAC_LTGcore_GG_RTGcore_GG] (site GAGTCCACTAC) (LTG core: GG, RTG core: GG)",0.0822
21,"GAGTCCATATGGGTTCTAACCTGTTGCGTTA [GAGTCCACTAC_LTGcore_TA_RTGcore_TA] (site GAGTCCACTAC) (LTG core: TA, RTG core: TA)",0.0207
22,"GAGTCCATCTGGGTTCTAACCTGTTGCGTAG [GAGTCCACTAC_LTGcore_TC_RTGcore_CT] (site GAGTCCACTAC) (LTG core: TC, RTG core: CT)",0.0202
23,"GAGTCCATCTGGGTTCTAACCTGTTGCGTGA [GAGTCCACTAC_LTGcore_TC_RTGcore_TC] (site GAGTCCACTAC) (LTG core: TC, RTG core: TC)",0.0654

row,Sequence,recombinant barcode read abundance (log10)
1,"GAGTCCATTTGGGTTCTAACCTGTTGCGTAG [GAGTCCACTAC_LTGcore_TT_RTGcore_CT] (site GAGTCCACTAC) (LTG core: TT, RTG core: CT)",0.0725
2,"GAGTCCTAATGGGTTCTAACCTGTTGCCTAG [GAGTCCTCTAG_LTGcore_AA_RTGcore_CT] (site GAGTCCTCTAG) (LTG core: AA, RTG core: CT)",0.149
3,"GAGTCCTAATGGGTTCTAACCTGTTGCCTTT [GAGTCCTCTAG_LTGcore_AA_RTGcore_AA] (site GAGTCCTCTAG) (LTG core: AA, RTG core: AA)",0.11
4,"GAGTCCTCTTGGGTTCTAACCTGTTGCCTCA [GAGTCCTCTAG_LTGcore_CT_RTGcore_TG] (site GAGTCCTCTAG) (LTG core: CT, RTG core: TG)",0.316
5,"GAGTCCTCTTGGGTTCTAACCTGTTGCCTCG [GAGTCCTCTAG_LTGcore_CT_RTGcore_CG] (site GAGTCCTCTAG) (LTG core: CT, RTG core: CG)",1.19
6,"GAGTCCTCTTGGGTTCTAACCTGTTGCCTGT [GAGTCCTCTAG_LTGcore_CT_RTGcore_AC] (site GAGTCCTCTAG) (LTG core: CT, RTG core: AC)",0.0922
7,"GAGTCCTGGTGGGTTCTAACCTGTTGCCTAG [GAGTCCTCTAG_LTGcore_GG_RTGcore_CT] (site GAGTCCTCTAG) (LTG core: GG, RTG core: CT)",0.165
8,"GAGTCCTGTTGGGTTCTAACCTGTTGCCTAG [GAGTCCTCTAG_LTGcore_GT_RTGcore_CT] (site GAGTCCTCTAG) (LTG core: GT, RTG core: CT)",0.165
9,"GAGTCCTTGTGGGTTCTAACCTGTTGCCTAG [GAGTCCTCTAG_LTGcore_TG_RTGcore_CT] (site GAGTCCTCTAG) (LTG core: TG, RTG core: CT)",0.0483
10,"GCGCGACAGTGGGTTCTAACCTGTTGCTTCT [GCGCGACCTAA_LTGcore_AG_RTGcore_AG] (site GCGCGACCTAA) (LTG core: AG, RTG core: AG)",0.313
11,"GCGCGACATTGGGTTCTAACCTGTTGCTTAG [GCGCGACCTAA_LTGcore_AT_RTGcore_CT] (site GCGCGACCTAA) (LTG core: AT, RTG core: CT)",0.0488
12,"GCGCGACATTGGGTTCTAACCTGTTGCTTAT [GCGCGACCTAA_LTGcore_AT_RTGcore_AT] (site GCGCGACCTAA) (LTG core: AT, RTG core: AT)",0.493
13,"GCGCGACCTTGGGTTCTAACCTGTTGCTTAG [GCGCGACCTAA_LTGcore_CT_RTGcore_CT] (site GCGCGACCTAA) (LTG core: CT, RTG core: CT)",0.515
14,"GCGCGACGATGGGTTCTAACCTGTTGCTTTC [GCGCGACCTAA_LTGcore_GA_RTGcore_GA] (site GCGCGACCTAA) (LTG core: GA, RTG core: GA)",0.0229
15,"GCGCGACTGTGGGTTCTAACCTGTTGCTTAG [GCGCGACCTAA_LTGcore_TG_RTGcore_CT] (site GCGCGACCTAA) (LTG core: TG, RTG core: CT)",0.0192
16,"GCGCGACTTTGGGTTCTAACCTGTTGCTTAA [GCGCGACCTAA_LTGcore_TT_RTGcore_TT] (site GCGCGACCTAA) (LTG core: TT, RTG core: TT)",0.108
17,"GCGGGACCGTGGGTTCTAACCTGTTGCCTCG [GCGGGACCTAG_LTGcore_CG_RTGcore_CG] (site GCGGGACCTAG) (LTG core: CG, RTG core: CG)",0.248
18,"GCGGGACCTTGGGTTCTAACCTGTTGCCTAA [GCGGGACCTAG_LTGcore_CT_RTGcore_TT] (site GCGGGACCTAG) (LTG core: CT, RTG core: TT)",1.15
19,"GCGGGACCTTGGGTTCTAACCTGTTGCCTAC [GCGGGACCTAG_LTGcore_CT_RTGcore_GT] (site GCGGGACCTAG) (LTG core: CT, RTG core: GT)",0.997
20,"GCGGGACCTTGGGTTCTAACCTGTTGCCTAG [GCGGGACCTAG_LTGcore_CT_RTGcore_CT] (site GCGGGACCTAG) (LTG core: CT, RTG core: CT)",2.64
21,"GCGGGACCTTGGGTTCTAACCTGTTGCCTAT [GCGGGACCTAG_LTGcore_CT_RTGcore_AT] (site GCGGGACCTAG) (LTG core: CT, RTG core: AT)",1.68
22,"GCGGGACCTTGGGTTCTAACCTGTTGCCTCG [GCGGGACCTAG_LTGcore_CT_RTGcore_CG] (site GCGGGACCTAG) (LTG core: CT, RTG core: CG)",1.7
